# Patent US11771709B2, “ALK protein degradation agent and anti-tumor application thereof” (ShanghaiTech University, priority 2017, dated 2023)
# Test system: SR (NPM-ALK) cells
# Experiment: Growth inhibition IC50 in ALCL SR cells (CCK8/WST, 72 hours)
# Format: cell-based
# Settings: 72 h, SR cells, WST; Brigatinib-based PROTAD molecules (Table 3)
# Description: SR (NPM-ALK) and NCI-H2228 (EML4-ALK, V3) cells were purchased from ATCC. […] All Cells were cultured in RPMI1640 medium with 10% FBS and Penicillin-Streptomycin in 37° C. incubator with 5% CO2.
# Cells were seeded at specific density in 96 well plates one day before treatment. […] Viable cells were measured via CCK8 reagent and IC50s were calculated via Prism Graphad. Experiments were repeated at least three times.
row,SMILES,IC50
1,COc1cc(N2CCC(NC(=O)CCOCCNc3cccc4c3C(=O)N(C3CCC(=O)NC3=O)C4=O)CC2)ccc1Nc1ncc(Cl)c(Nc2ccccc2P(C)(C)=O)n1 (centres unmarked) [SIAIS151113],7.5 ± 5.2 nM
2,"COc1cc(N2CCC(N3CCN(C(=O)CCCCCCNc4cccc5c4CN(C4CCC(=O)NC4=O)C5=O)CC3)CC2)ccc1Nc1ncc(Cl)c(Nc2ccccc2P(C)(C)=O)n1 (centres unmarked) [SIAIS219124, 3-(4-((7-(4-(1-(4-((5-chloro-4-((2-(dimethylphosphoryl)phenyl)amino)pyrimidin-2-yl)amino)-3-methoxyphenyl)piperidin-4-yl)piperazin-1-yl)-7-oxoheptyl)amino)-1-oxoisoindolin-2-yl)piperidine-2,6-dione]",2.47 ± 0.6 nM
3,"COc1cc(N2CCC(NC(=O)CCCNc3cccc4c3CN(C3CCC(=O)NC3=O)C4=O)CC2)ccc1Nc1ncc(Cl)c(Nc2ccccc2P(C)(C)=O)n1 (centres unmarked) [SIAIS219128, N-(1-(4-((5-chloro-4-((2-(dimethylphosphoryl)phenyl)amino)pyrimidin-2-yl)amino)-3-methoxyphenyl)piperidin-4-yl)-4-((2-(2,6-dioxopiperidin-3-yl)-1-oxoisoindolin-4-yl)amino)butanamide]",6.67 ± 1 nM
4,"COc1cc(N2CCC(NC(=O)CNc3cccc4c3CN(C3CCC(=O)NC3=O)C4=O)CC2)ccc1Nc1ncc(Cl)c(Nc2ccccc2P(C)(C)=O)n1 (centres unmarked) [SIAIS219151, N-(1-(4-((5-chloro-4-((2-(dimethylphosphoryl)phenyl)amino)pyrimidin-2-yl)amino)-3-methoxyphenyl)piperidin-4-yl)-2-((2-(2,6-dioxopiperidin-3-yl)-1-oxoisoindolin-4-yl)amino)acetamide]",102 ± 4.8 nM
5,"COc1cc(N2CCC(NC(=O)CCCCNc3cccc4c3CN(C3CCC(=O)NC3=O)C4=O)CC2)ccc1Nc1ncc(Cl)c(Nc2ccccc2P(C)(C)=O)n1 (centres unmarked) [SIAIS219152, N-(1-(4-((5-chloro-4-((2-(dimethylphosphoryl)phenyl)amino)pyrimidin-2-yl)amino)-3-methoxyphenyl)piperidin-4-yl)-5-((2-(2,6-dioxopiperidin-3-yl)-1-oxoisoindolin-4-yl)amino)pentanamide]",3.78 ± 0.4 nM
6,"COc1cc(N2CCC(NC(=O)CCCCCNc3cccc4c3CN(C3CCC(=O)NC3=O)C4=O)CC2)ccc1Nc1ncc(Cl)c(Nc2ccccc2P(C)(C)=O)n1 (centres unmarked) [SIAIS219153, N-(1-(4-((5-chloro-4-((2-(dimethylphosphoryl)phenyl)amino)pyrimidin-2-yl)amino)-3-methoxyphenyl)piperidin-4-yl)-6-((2-(2,6-dioxopiperidin-3-yl)-1-oxoisoindolin-4-yl)amino)hexanamide]",3.12 ± 0.2 nM
7,"COc1cc(N2CCC(NC(=O)CCCCCCNc3cccc4c3CN(C3CCC(=O)NC3=O)C4=O)CC2)ccc1Nc1ncc(Cl)c(Nc2ccccc2P(C)(C)=O)n1 (centres unmarked) [SIAIS219154, N-(1-(4-((5-chloro-4-((2-(dimethylphosphoryl)phenyl)amino)pyrimidin-2-yl)amino)-3-methoxyphenyl)piperidin-4-yl)-7-((2-(2,6-dioxopiperidin-3-yl)-1-oxoisoindolin-4-yl)amino)heptanamide]",3.8 ± 0.2 nM
8,"COc1cc(N2CCC(N3CCN(C(=O)CCCNc4cccc5c4CN(C4CCC(=O)NC4=O)C5=O)CC3)CC2)ccc1Nc1ncc(Cl)c(Nc2ccccc2P(C)(C)=O)n1 (centres unmarked) [SIAIS219155, 3-(4-((4-(4-(1-(4-((5-chloro-4-((2-(dimethylphosphoryl)phenyl)amino)pyrimidin-2-yl)amino)-3-methoxyphenyl)piperidin-4-yl)piperazin-1-yl)-4-oxobutyl)amino)-1-oxoisoindolin-2-yl)piperidine-2,6-dione]",4.34 ± 0.4 nM
9,"COc1cc(N2CCC(N3CCN(C(=O)CCCCNc4cccc5c4CN(C4CCC(=O)NC4=O)C5=O)CC3)CC2)ccc1Nc1ncc(Cl)c(Nc2ccccc2P(C)(C)=O)n1 (centres unmarked) [SIAIS219156, 3-(4-((5-(4-(1-(4-((5-chloro-4-((2-(dimethylphosphoryl)phenyl)amino)pyrimidin-2-yl)amino)-3-methoxyphenyl)piperidin-4-yl)piperazin-1-yl)-5-oxopentyl)amino)-1-oxoisoindolin-2-yl)piperidine-2,6-dione]",3.09 ± 0.2 nM
10,"COc1cc(N2CCC(N3CCN(C(=O)CCCCCNc4cccc5c4CN(C4CCC(=O)NC4=O)C5=O)CC3)CC2)ccc1Nc1ncc(Cl)c(Nc2ccccc2P(C)(C)=O)n1 (centres unmarked) [SIAIS219157, 3-(4-((6-(4-(1-(4-((5-chloro-4-((2-(dimethylphosphoryl)phenyl)amino)pyrimidin-2-yl)amino)-3-methoxyphenyl)piperidin-4-yl)piperazin-1-yl)-6-oxohexyl)amino)-1-oxoisoindolin-2-yl)piperidine-2,6-dione]",1.99 ± 0.2 nM
11,"COc1cc(N2CCC(N3CCN(C(=O)CCc4cccc5c4C(=O)N(C4CCC(=O)NC4=O)C5=O)CC3)CC2)ccc1Nc1ncc(Cl)c(Nc2ccccc2P(C)(C)=O)n1 (centres unmarked) [SIAIS219158, 4-(3-(4-(1-(4-((5-chloro-4-((2-(dimethylphosphoryl)phenyl)amino)pyrimidin-2-yl)amino)-3-methoxyphenyl)piperidin-4-yl)piperazin-1-yl)-3-oxopropyl)-2-(2,6-dioxopiperidin-3-yl)isoindoline-1,3-dione]",30.3 ± 3.8 nM
12,"COc1cc(N2CCC(NC(=O)CCc3cccc4c3C(=O)N(C3CCC(=O)NC3=O)C4=O)CC2)ccc1Nc1ncc(Cl)c(Nc2ccccc2P(C)(C)=O)n1 (centres unmarked) [SIAIS219170, N-(1-(4-((5-chloro-4-((2-(dimethylphosphoryl)phenyl)amino)pyrimidin-2-yl)amino)-3-methoxyphenyl)piperidin-4-yl)-3-(2-(2,6-dioxopiperidin-3-yl)-1,3-dioxoisoindolin-4-yl)propanamide]",10.8 ± 1.4 nM
13,"COc1cc(N2CCC(NCCCCNc3cccc4c3C(=O)N(C3CCC(=O)NC3=O)C4=O)CC2)ccc1Nc1ncc(Cl)c(Nc2ccccc2P(C)(C)=O)n1 (centres unmarked) [SIAIS220026, 4-((4-((1-(4-((5-chloro-4-((2-(dimethylphosphoryl)phenyl)amino)pyrimidin-2-yl)amino)-3-methoxyphenyl)piperidin-4-yl)amino)butyl)amino)-2-(2,6-dioxopiperidin-3-yl)isoindoline-1,3-dione]",7.4 nM
14,"COc1cc(N2CCC(N3CCN(CCNc4cccc5c4C(=O)N(C4CCC(=O)NC4=O)C5=O)CC3)CC2)ccc1Nc1ncc(Cl)c(Nc2ccccc2P(C)(C)=O)n1 (centres unmarked) [SIAIS220027, 4-((2-(4-(1-(4-((5-chloro-4-((2-(dimethylphosphoryl)phenyl)amino)pyrimidin-2-yl)amino)-3-methoxyphenyl)piperidin-4-yl)piperazin-1-yl)ethyl)amino)-2-(2,6-dioxopiperidin-3-yl)isoindoline-1,3-dione]",3.8 nM
15,"COc1cc(N2CCC(N(C)C(=O)CCCNc3cccc4c3C(=O)N(C3CCC(=O)NC3=O)C4=O)CC2)ccc1Nc1ncc(Cl)c(Nc2ccccc2P(C)(C)=O)n1 (centres unmarked) [SIAIS220030, N-(1-(4-((5-chloro-4-((2-(dimethylphosphoryl)phenyl)amino)pyrimidin-2-yl)amino)-3-methoxyphenyl)piperidin-4-yl)-4-((2-(2,6-dioxopiperidin-3-yl)-1,3-dioxoisoindolin-4-yl)amino)-N-methylbutanamide]",5.8 nM

# Same assay, conditions: SR cells, WST; Alectinib based ALK PROTAD compounds (Table 4)
row,SMILES,IC50
1,"CCc1cc2c(cc1N1CCC(NC(=O)CCCCCCCCC(=O)N[C@H](C(=O)N3C[C@H](O)C[C@H]3C(=O)NCc3ccc(-c4scnc4C)cc3)C(C)(C)C)CC1)C(C)(C)c1[nH]c3cc(C#N)ccc3c1C2=O [SIAIS219021, N1-(1-(3-cyano-9-ethyl-6,6-dimethyl-11-oxo-6,11-dihydro-5H-benzo[b]carbazol-8-yl)piperidin-4-yl)-N10-((S)-1-((2S,4R)-4-hydroxy-2-((4-(4-methylthiazol-5-yl)benzyl)carbamoyl)pyrrolidin-1-yl)-3,3-dimethyl-1-oxobutan-2-yl)decanediamide]",115 nM
2,CCc1cc2c(cc1N1CCC(NC(=O)CCOCCOCCNc3cccc4c3C(=O)N(C3CCC(=O)NC3=O)C4=O)CC1)C(C)(C)c1[nH]c3cc(C#N)ccc3c1C2=O (centres unmarked) [SIAIS219023],29.3 nM
3,"CCc1cc2c(cc1N1CCC(NC(=O)CCOCCOCCOCCOCCNc3cccc4c3C(=O)N(C3CCC(=O)NC3=O)C4=O)CC1)C(C)(C)c1[nH]c3cc(C#N)ccc3c1C2=O (centres unmarked) [SIAIS219024, N-(1-(3-cyano-9-ethyl-6,6-dimethyl-11-oxo-6,11-dihydro-5H-benzo[b]carbazol-8-yl)piperidin-4-yl)-1-((2-(2,6-dioxopiperidin-3-yl)-1,3-dioxoisoindolin-4-yl)amino)-3,6,9,12-tetraoxapentadecan-15-amide]",73.1 nM

# Biological target: T1, ALK protein in H3122 (EML4-ALK) cells (Homo sapiens, UniProt Q9UM73)
# T1 construct: EML4 (Echinoderm microtubule-associated protein-like 4, Q9HC35) fusion partner, variant 1; host or cells: NCI-H3122 lung adenocarcinoma cells; the other entry of the earlier key: EML4 (Q9HC35, Echinoderm microtubule-associated protein-like 4)
# Experiment: Western blot of ALK protein level (degradation, DC50), ALK phosphorylation and downstream signaling in H3122 cells
# Format: cell-based
# Settings: ALK protein degradation in H3122 cells
# T1 sequence (Q9UM73 with tags, fused parts or gaps): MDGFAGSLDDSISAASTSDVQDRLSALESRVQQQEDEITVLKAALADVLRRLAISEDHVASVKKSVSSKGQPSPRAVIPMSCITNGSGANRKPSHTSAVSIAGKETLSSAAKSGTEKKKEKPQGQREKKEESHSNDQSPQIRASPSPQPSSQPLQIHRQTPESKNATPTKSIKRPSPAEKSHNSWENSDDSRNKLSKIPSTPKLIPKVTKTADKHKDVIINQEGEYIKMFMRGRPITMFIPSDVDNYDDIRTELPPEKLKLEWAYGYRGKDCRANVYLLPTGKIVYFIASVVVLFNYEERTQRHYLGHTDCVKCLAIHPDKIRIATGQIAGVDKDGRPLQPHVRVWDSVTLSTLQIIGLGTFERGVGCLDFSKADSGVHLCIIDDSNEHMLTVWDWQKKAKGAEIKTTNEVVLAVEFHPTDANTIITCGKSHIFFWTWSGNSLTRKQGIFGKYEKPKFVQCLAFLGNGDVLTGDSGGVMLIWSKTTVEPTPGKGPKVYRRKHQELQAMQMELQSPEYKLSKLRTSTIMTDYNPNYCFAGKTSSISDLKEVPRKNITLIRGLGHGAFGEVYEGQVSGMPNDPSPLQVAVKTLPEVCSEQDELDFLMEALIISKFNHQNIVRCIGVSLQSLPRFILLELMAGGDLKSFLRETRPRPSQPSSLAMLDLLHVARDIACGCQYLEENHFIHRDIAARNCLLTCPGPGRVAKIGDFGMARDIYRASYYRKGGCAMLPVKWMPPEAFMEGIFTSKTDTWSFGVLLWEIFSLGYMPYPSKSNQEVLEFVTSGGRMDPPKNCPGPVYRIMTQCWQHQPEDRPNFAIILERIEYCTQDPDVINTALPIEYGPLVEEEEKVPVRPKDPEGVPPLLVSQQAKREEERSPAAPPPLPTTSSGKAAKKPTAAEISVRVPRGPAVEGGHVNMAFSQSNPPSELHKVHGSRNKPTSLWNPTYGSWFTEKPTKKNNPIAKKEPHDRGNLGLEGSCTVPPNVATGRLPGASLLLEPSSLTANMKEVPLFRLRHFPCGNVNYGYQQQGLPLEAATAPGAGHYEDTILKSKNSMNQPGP
row,SMILES,DC50
1,"C[C@@H](Oc1cc(-c2cnn(C3CCN(C(=O)CCOCCOCCOCCOCCNc4cccc5c4C(=O)N(C4CCC(=O)NC4=O)C5=O)CC3)c2)cnc1N)c1c(Cl)ccc(F)c1Cl (stereo partly drawn) [SIAIS151060, 4-((15-(4-(4-(6-amino-5-((R)-1-(2,6-dichloro-3-fluorophenyl)ethoxy)pyridin-3-yl)-1H-pyrazol-1-yl)piperidin-1-yl)-15-oxo-3,6,9,12-tetraoxapentadecyl)amino)-2-(2,6-dioxopiperidin-3-yl)isoindoline-1,3-dione]",100 to 500 nM
2,"C[C@@H](Oc1cc(-c2cnn(C3CCN(C(=O)CCCCNc4cccc5c4C(=O)N(C4CCC(=O)NC4=O)C5=O)CC3)c2)cnc1N)c1c(Cl)ccc(F)c1Cl (stereo partly drawn) [SIAIS151082, 4-((5-(4-(4-(6-amino-5-((R)-1-(2,6-dichloro-3-fluorophenyl)ethoxy)pyridin-3-yl)-1H-pyrazol-1-yl)piperidin-1-yl)-5-oxopentyl)amino)-2-(2,6-dioxopiperidin-3-yl)isoindoline-1,3-dione]",1 to 10 nM
3,"C[C@@H](Oc1cc(-c2cnn(C3CCN(C(=O)CNc4cccc5c4C(=O)N(C4CCC(=O)NC4=O)C5=O)CC3)c2)cnc1N)c1c(Cl)ccc(F)c1Cl (stereo partly drawn) [SIAIS151083, 4-((2-(4-(4-(6-amino-5-((R)-1-(2,6-dichloro-3-fluorophenyl)ethoxy)pyridin-3-yl)-1H-pyrazol-1-yl)piperidin-1-yl)-2-oxoethyl)amino)-2-(2,6-dioxopiperidin-3-yl)isoindoline-1,3-dione]",10 to 50 nM
4,COc1cc(N2CCC(NC(=O)CCOCCNc3cccc4c3C(=O)N(C3CCC(=O)NC3=O)C4=O)CC2)ccc1Nc1ncc(Cl)c(Nc2ccccc2P(C)(C)=O)n1 (centres unmarked) [SIAIS151113],100 to 500 nM

# Same assay, conditions: H3122 cells, western blot
row,SMILES,concentration at which ALK protein level was reduced
1,"C[C@@H](Oc1cc(-c2cnn(C3CCN(C(=O)CCCCNc4cccc5c4C(=O)N(C4CCC(=O)NC4=O)C5=O)CC3)c2)cnc1N)c1c(Cl)ccc(F)c1Cl (stereo partly drawn) [SIAIS151082, 4-((5-(4-(4-(6-amino-5-((R)-1-(2,6-dichloro-3-fluorophenyl)ethoxy)pyridin-3-yl)-1H-pyrazol-1-yl)piperidin-1-yl)-5-oxopentyl)amino)-2-(2,6-dioxopiperidin-3-yl)isoindoline-1,3-dione]",about 50 nM
